Like-named read-outs stand apart in the source and are kept apart here.
Assays:
subjects with anemia [1] = experiment: Integrated safety studies (10 clinical studies A-J)
Excerpt: (§3) Study A was a single-center, single-dose escalation, randomized, double-blind, placebo-controlled pharmacokinetic study. Subjects were male and female, between 18 and 45 years of age, inclusive, with mild iron-deficiency anemia. […] Examined pharmacokinetic parameters included total serum iron and pharmacodynamic (serum ferritin and transferrin, iron binding capacity, % TSATpost, hemoglobin, reticulocyte, and serum transferrin receptor concentrations) endpoints. Examined safety parameters included adverse events, clinical laboratory evaluations, vital signs, ECG, and physical examinations.
(§4) Study B was a single-center, single-dose, open label, uncontrolled pharmacokinetic study. Subjects were between 18 and 75 years of age with iron-deficiency or renal anemia with no other cause of anemia. Inclusion criteria included hemoglobin concentration between 9 and 13 g/dL, no blood transfusions in the previous 3 months, and no history of treatment with intravenous iron in the last 2 weeks. […] Examined primary pharmacokinetic parameters included the distribution of ^52Fe and incorporation of ^59Fe into red blood cells. Examined safety parameters included adverse events, clinical laboratory evaluations, vital signs, and physical examinations.
(§5) Study C was an open-label, multicenter, randomized, multiple-dose, active-controlled postpartum anemia study. […] Where screening serum transferrin saturation (TSAT) was 20% or screening ferritin was 50 ng/mL, dosage=pre-pregnancy weight (kg)×(15−baseline hemoglobin [g/dL])×2.4+500 mg. Where screening TSAT was >20% and screening ferritin was >50 ng/mL, dosage=pre-pregnancy weight (kg)×(15−baseline hemoglobin [g/dL])×2.4. […] For primary efficacy, “success” was defined as an increase in hemoglobin of ≥2 g/dL anytime between baseline and end of study or time of intervention, while “failure” was defined as <2 g/dL increase in hemoglobin at all times between baseline and end of study or time of intervention. Examined safety parameters included adverse events, clinical laboratory evaluations, vital signs, and physical examinations.
(§6) Study D was a multicenter, open-label, randomized, active-controlled, multiple-dose postpartum anemia study. Subjects were adult women ≥18 years old with postpartum anemia within 6 days after delivery. Treatment was administered once-weekly for a maximum of 3 infusions. […] Patients ≤66 kg received a minimum dose of 200 mg and a maximum dose of 15 mg iron/kg during each infusion. Patients >66 kg received a dose of 1000 mg on the first dosing occasion, and a minimum dose of 200 mg and a maximum dose of 1000 mg at each subsequent dosing. Doses of 200-400 mg were diluted in 100 cc NSS and 500-1000 mg were diluted in 250 cc NSS. Primary efficacy was examined as change from baseline levels of hemoglobin to Week 12. Examined safety parameters included adverse events in the mother and breast-fed infant, adverse events leading to discontinuation of treatment, vital signs, 12-lead electrocardiogram (ECG), physical examinations, and clinical laboratory panels.
(§7) Study E was a multicenter, open-label, randomized, active-controlled, multiple-dose hemodialysis-associated anemia study.

subjects with anemia [2] = settings: human, in vivo
Excerpt: as §3, §4, §5, §6, §7

[3] = light scattering; cited from earlier work
[4] = in vivo; cited from earlier work
[5] = isotonic; cited from earlier work
patients (Hb levels) = experiment: Multiple dose efficacy study, Cohorts 1 and 2 (Hb levels); format: in vivo, human
Excerpt: Efficacy of iron replacement therapy is interpreted mainly in terms of the ability to normalize Hb levels and iron stores. […] In one study, 37% and 48% of patients in Cohorts 1 and 2, respectively, had achieved normal Hb levels at the 4-week follow-up visit, and 75% and 73%, respectively, had achieved a ≥20 g/L increase in Hb on at least 1 occasion.

[6] = test system: patients with iron deficiency anemia or renal anemia; experiment: Safety assessments in patients with iron deficiency anemia and renal anemia; format: in vivo, human
[7] = Iron (III) Control Release Test; format: physicochemical
[8] = pH and osmolarity of the iron carbohydrate complex; format: physicochemical
Excerpt: (§1) It is within the skill of the art to test various characteristics of iron carbohydrate complexes as so determine amenability to use in the methods described herein. For example, pH and osmolarity are straightforward determinations performed on a sample formulation. Likewise, techniques such as electron micrograph imaging, transmission electron microscopy, and atomic force microscopy provide direct methods to analyze both iron core and particle size. See e.g., FIG. 1; Table 1. The stability of the carbohydrate complex can be assessed through physicochemical properties such as kinetic characteristics, thermodynamic characteristics, and degradation kinetics. See, Geisser et al. (1992) Arzneimittelforschung 42(12):1439-1452. Useful techniques to assess physical and electronic properties include absorption spectroscopy, X-ray diffraction analysis, transmission electron microscopy, atomic force microscopy, and elemental analysis. See, Kudasheva et al. (2004) J. Inorg. Biochem. 98:1757-1769. Pharmacokinetics can be assessed, for example, by iron tracer experiments. Hypersensitivity reactions can be monitored and assessed as described in, for example, Bailie et al. (2005) Nephrol. Dial. Transplant 20(7):1443-1449. Safety, efficacy, and toxicity in human subjects can be assessed, for example, as described in Spinowitz et al. (2005) Kidney Intl. 68:1801-1807.

dextran antibodies = experiment: Reaction with dextran antibodies / dextran antigenicity test
[9] = test system: patients receiving regular hemodialysis; experiment: Multiple dose efficacy study in patients receiving regular hemodialysis; format: in vivo, human
Excerpt: However, elevated levels of ferritin and TfS indicating iron overload were avoided. In both of these studies, there was a gradual decrease in transferrin over time, also indicating successful iron replacement.

[10] = PET pharmacokinetic study of 52Fe/59Fe labelled VIT-45 after i.v. administration; format: in vivo, human
Excerpt: See e.g., Beshara et al. (2003) Br. J. Haematol. 120(5): 853-859.
(§2) There was negligible renal elimination.

mice = experiment: Single dose toxicity in mice
rodents = experiment: Single-dose toxicity studies, intravenous, rodents; format: in vivo
patients = experiment: Efficacy studies: pharmacodynamic effects (serum iron, TfS, serum ferritin); format: in vivo, human; settings: single and repeated doses
Excerpt: The increase in serum ferritin levels illustrated the replenishment of the depleted iron stores, which is a well-identified and desired effect of iron therapy.

[11] = Core and particle size of iron carbohydrate complexes (electron micrographs); format: physicochemical
Excerpt: FIG. 1A-FIG. 1C are a series of electron micrographs that depict the particle size of three iron carbohydrate complexes. […] FIG. 1B is an electron micrograph depicting the particle size of Venofer® (an iron sucrose).
as §1, with “Useful techniques to assess physical and electronic properties include absorption spectroscopy, X-ray diffraction analysis, transmission electron microscopy, atomic force microscopy, and elemental analysis. See, Kudasheva et al. (2004) J. Inorg. Biochem. 98:1757-1769.” left out, “Dial. Transplant 20(7):1443-1449.” left out, “68:1801-1807.” left out

[12] = In vitro and in vivo mutagenicity tests
dogs [13] = experiment: Single-dose toxicity studies, intravenous, dogs; format: in vivo
[14] = Pharmacokinetic studies (total serum iron) in patients with iron deficiency anemia; format: in vivo, human
Excerpt: as §2

rabbit = experiment: Intra-arterial, perivenous, intravenous tolerance studies; format: in vivo
rats [15] = experiment: Single dose toxicity in rats; format: in vivo
dogs [16] = experiment: Pre-clinical 13-week cumulative dose study in dogs; format: in vivo; settings: over 13 weeks
[17] = Single dose toxicity (LD50, acute toxicity); settings: in vivo
rats [18] = experiment: Pre-clinical 13-week cumulative dose study in rats; format: in vivo; settings: over 13 weeks
[19] = calculated dose/first-dose 1,000 mg studies

## ferrous sulfate [oral iron, reference compound]
Subjects with anemia [1]
  incidence of premature discontinuation due to adverse events: 3.1%
Subjects with anemia [1]; [19]
  incidence of adverse events associated with investigations: 3.9%
  incidence of gastrointestinal disorders: 31.0%
  incidence of skin and subcutaneous tissue disorders: 2.4%
  incidence of treatment-emergent adverse events on the first day of dosing: 2.7%
  overall incidence of treatment-emergent adverse events: 51.2%
Subjects with anemia [1]; completed multicenter studies
  incidence of adverse events leading to discontinuation: 2.1%
  incidence of gastrointestinal events: 31.0%
  incidence of premature discontinuations: 9.6%
  overall incidence of treatment-emergent adverse events: 51.2%
Subjects with anemia [2]
  incidence of drug-related treatment-emergent adverse events of hypersensitivity: 0.2%

## polyglucose sorbitol carboxymethyl ether-coated non-stoichiometric magnetite [ferumoxytol]
[3]
  average colloidal particle size: about 30 nm
[4]
  blood half-life: 10 to 14 h
[5]
  osmolarity: 297 mOsm/kg

## polynuclear iron (III)-hydroxide 4(R)-(poly-(1→4)-O-α-D-glucopyranosyl)-oxy-2(R),3(R),5(R),6-tetrahydroxy-hexanoate [VIT-45]
Patients (Hb levels); Cohort 1
  patients who achieved a ≥20 g/L increase in Hb on at least 1 occasion: 75%
Patients (Hb levels); Cohort 1, 4-week follow-up visit
  patients who achieved normal Hb levels: 37%
Patients (Hb levels); Cohort 2
  patients who achieved a ≥20 g/L increase in Hb on at least 1 occasion: 73%
Patients (Hb levels); Cohort 2, 4-week follow-up visit
  patients who achieved normal Hb levels: 48%
[6]; dosing schedules of the studies
  iron overload: Iron overload was avoided
[6]; repeated-dose studies
  deaths attributed to treatment: no deaths
  laboratory values reported as treatment-related treatment-emergent adverse events: 6 patients
  patients who experienced serious adverse events (considered not related): 10 patients
  withdrawals considered possibly related to treatment (allergic skin reactions): 2 withdrawals
[6]; single-dose studies
  serious adverse events or withdrawals due to adverse events: no serious adverse events or withdrawals
[7]
  Iron (III) Control Release Test T75: 117.8 min
[8]
  osmolarity: physiological osmolarity
Subjects with anemia [1]
  incidence of premature discontinuation due to adverse events: 2.1%
Subjects with anemia [1]; 1095 VIT-45 subjects
  treatment-emergent adverse event: abdominal pain: 2.5%
  treatment-emergent adverse event: blood phosphate decreased: 2.4%
  treatment-emergent adverse event: headache: 8.6%
  treatment-emergent adverse event: hypertension: 2.2%
  treatment-emergent adverse event: hypotension: 2.0%
  treatment-emergent adverse event: nasopharyngitis: 2.0%
  treatment-emergent adverse event: nausea: 2.4%
Subjects with anemia [1]; all completed multicenter studies
  incidence of other serious adverse events: 3%
Subjects with anemia [1]; [19]
  drug-related treatment-emergent adverse event: blood phosphate decreased: 3.3%
  drug-related treatment-emergent adverse event: headache: 3.9%
  incidence of adverse events associated with investigations: 9.1%
  incidence of gastrointestinal disorders: 15.2%
  incidence of skin and subcutaneous tissue disorders: 7.3%
  incidence of treatment-emergent adverse events on the first day of dosing: 6.8%
  overall incidence of treatment-emergent adverse events: 49.5%
Subjects with anemia [1]; completed multicenter studies
  incidence of adverse events leading to discontinuation: 1.8%
  incidence of gastrointestinal events: 12.8%
  incidence of premature discontinuations: 10%
  overall incidence of treatment-emergent adverse events: 49.5%
Subjects with anemia [1]; open label clinical trials, about 1700 subjects, up to 1,000 mg over 15 minutes i.v.
  serious adverse events or withdrawals due to related adverse events: no serious adverse events or withdrawals
Subjects with anemia [1]; placebo-controlled, single-dose crossover study
  incidence of other serious adverse events: 0.3%
Subjects with anemia [1]; transient, asymptomatic
  time after initial dose at which decreases in blood phosphate were apparent: approximately 7 days
Dextran antibodies
  reaction with dextran antibodies: does not react with dextran antibodies
  specific responses in dextran antigenicity test: no specific responses
[9]
  patients who achieved an increase of Hb of ≥10 g/L at any point during the study: 61.7%
[10]; i.v., patients
  calculated terminal half-life (t1/2): approximately 16 hours
[10]; in vivo, iv
  distribution after intravenous administration: mainly found in the liver, spleen, and bone marrow
mice
  highest non-lethal dose level: 1000 mg iron/kg b.w.
mice; single dose 250 mg iron/kg b.w. injected within 2 seconds
  signs of illness: no signs of illness
Subjects with anemia [2]
  changes in vital signs evaluations: no clinically meaningful changes
  deaths attributed to treatment: no deaths
  drug-related mild or moderate hypotension: 0.2%
  drug-related mild or moderate hypotension, number of subjects: 4 subjects
  incidence of drug-related treatment-emergent adverse events of hypersensitivity: 0.2%
  median time to recovery of blood phosphate: approximately 2 weeks
  overall incidence of treatment-emergent adverse events, 200 mg versus 1000 mg doses: similar
  treatment-emergent adverse events indicative of potential allergic reactions (rash, pruritus, urticaria): < 2%
rodents
  safe and tolerated intravenous dose relative to 1,000 mg iron once weekly in humans: up to 60 times
patients
  main pharmacodynamic effects: transient elevations of serum iron levels, TfS and serum ferritin
[11]
  Size of the Particle +/- SEM, Iron core: 4.4 ± 1.4 nm
  Size of the Particle +/- SEM, Total Particle: 6.7 ± 2.5 nm
[12]
  clastogenic, mutagenic, chromosomal damage or bone marrow cell toxicity: no evidence
Dogs [13]
  safe and tolerated intravenous dose relative to 1,000 mg iron once weekly in humans: up to 60 times
[14]; 500 mg dose
  maximal total serum iron concentration (Cmax): approximately 150 μg/mL
[14]; 1000 mg dose
  maximal total serum iron concentration (Cmax): ~320 µg/mL
[14]; human, in vivo
  renal elimination: negligible
rabbit
  treatment-related local tissue irritation: No treatment-related local tissue irritation
Rats [15]
  highest non-lethal dose level: 1000 mg iron/kg b.w.
Dogs [16]
  cumulative dose with no observed adverse effect level (clinical signs of iron accumulation in liver, spleen, kidneys): up to 117 mg iron/kg body weight
[17]
  acute toxicity relative to iron sucrose: one-fifth
Rats [18]
  cumulative dose with no observed adverse effect level (clinical signs of iron accumulation in liver, spleen, kidneys): up to 117 mg iron/kg body weight

Source: US11364260B2, “Methods and compositions for administration of iron” (American Regent, Inc., priority 2006, dated 2022)
